Measurements reported in patent US9215875B2 (priority 2008, dated 2015).
Like-named read-outs stand apart in the source and are kept apart here.

Assay: log P determination by HPLC on reversed-phase columns (C 18), acidic range pH 2.7
Type: physicochemical
Details: for logP: HPLC; for chromatographic logP: reversed-phase HPLC column (C 18)
[1] = pH 2.7, only value, or main isomer
[2] = pH 2.7, second-listed (minor) isomer of the isomer mixture
[3] = pH 2.7, HPLC, pH 2.7, only value, or main isomer, read-out: logP
[4] = pH 2.7, HPLC, pH 2.7, second-listed (minor) isomer of the isomer mixture, read-out: logP
[5] = pH 2.7, pH 2.7, preparation example, minor isomer, read-out: log P (pH2.7)
[6] = pH 2.7, pH 2.7, preparation example, only value or main isomer, read-out: log P (pH2.7)

Structure (SMILES)	logP [1]	logP [2]	also measured
Cc1cc(C(F)(F)F)nn1CC(=O)N1CCC(c2nc(C=NN(C)c3ccccc3)cs2)CC1 [I-15]	3.83		
O=C(Cc1cc(Cl)ccc1Cl)N1CCC(c2nc(C=NOC3CCCCC3)cs2)CC1 (mixture of isomers) [I-35]	5.10	5.45	
Cc1cc(C(F)(F)F)nn1CC(=O)N1CCC(c2nc(C=NOc3ccccc3)cs2)CC1 [I-1, 2-(1-{[5-Methyl-3-(trifluoromethyl)-1H-pyrazol-1-yl]acetyl}piperidin-4-yl)-1,3-thiazole-4-carbaldehyde O-phenyl oxime]			chromatographic logP [3]: 3.74; chromatographic logP [4]: 3.94; chromatographic logP [5]: 3.94; chromatographic logP [6]: 3.74
O=C(Cn1nc(C(F)F)cc1C(F)F)N1CCC(c2nc(C=NOCc3ccc(Cl)cc3)cs2)CC1 [I-27]	3.90		
CC(C)(C)c1cc(C(F)(F)C(F)(F)F)n(CC(=O)N2CCC(c3nc(C=NOCc4ccc(Cl)cc4)cs3)CC2)n1 [I-30]	5.31		
O=C(Cn1nc(C(F)F)cc1C(F)F)N1CCC(c2nc(C=NOCc3c(F)cccc3F)cs2)CC1 (mixture of isomers) [I-37]	3.58	3.74	
Cc1cc(C(F)(F)F)nn1CC(=O)N1CCC(c2nc(C=NOCc3ccccc3)cs2)CC1 (mixture of isomers) [I-2]	3.63	3.80	
Cc1cc(C(F)(F)F)nn1CC(=O)N1CCC(c2nc(C=NOCc3ccccc3F)cs2)CC1 (mixture of isomers) [I-9]	3.68	3.84	
CC(=NOC1CCCCC1)c1csc(C2CCN(C(=O)Cn3nc(C(F)(F)F)cc3C)CC2)n1 (mixture of isomers) [I-44]	4.02	4.12	
CC(C)(C)c1cc(C(F)(F)F)nn1CC(=O)N1CCC(c2nc(C=NOCc3ccc(Cl)cc3)cs2)CC1 [I-29]	4.75		
CC(=NOCc1c(F)cccc1F)c1csc(C2CCN(C(=O)Cc3cc(Cl)ccc3Cl)CC2)n1 (mixture of isomers) [I-43]	4.91	5.16	
CC(=NOCc1c(F)cccc1F)c1csc(C2CCN(C(=O)Cn3nc(C(F)(F)F)cc3C)CC2)n1 (mixture of isomers) [I-41]	4.11	4.32	
CC(C)(C)c1cc(C(F)(F)F)n(CC(=O)N2CCC(c3nc(C=NOCc4ccc(Cl)cc4)cs3)CC2)n1 [I-28]	4.99		
CC(=NOC1CCCCC1)c1csc(C2CCN(C(=O)Cn3nc(C(F)F)cc3C(F)F)CC2)n1 (mixture of isomers) [I-45]	4.69	4.88	
CCCCCON=C(C)c1csc(C2CCN(C(=O)Cn3nc(C(F)(F)F)cc3C)CC2)n1 [I-20]	4.71		
CC(=NOC1CCCCC1)c1csc(C2CCN(C(=O)Cc3cc(Cl)ccc3Cl)CC2)n1 (mixture of isomers) [I-46]	5.87	6.17	
Cc1cc(C(F)(F)F)nn1CC(=O)N1CCC(c2nc(C=NN3CCCCC3)cs2)CC1 [I-16]	3.00		
CC(C)(C)c1cc(C(F)(F)C(F)(F)F)nn1CC(=O)N1CCC(c2nc(C=NOCc3ccc(Cl)cc3)cs2)CC1 [I-31]	5.31		
O=C(Cc1cc(Cl)ccc1Cl)N1CCC(c2nc(C=NOc3ccccc3Br)cs2)CC1 [I-40]	4.90		
Cc1cc(C(F)(F)F)nn1CC(=O)N1CCC(c2nc(C=NOCc3ccc(Cl)cc3)cs2)CC1 (mixture of isomers) [I-7]	4.04	4.23	
CC(=O)c1csc(C2CCN(C(=O)Cn3nc(C(F)(F)F)cc3C)CC2)n1 [IV-1, 1-[4-(4-Acetyl-1,3-thiazol-2-yl)piperidin-1-yl]-2-[5-methyl-3-(trifluoromethyl)-1H-pyrazol-1-yl]ethanone]			chromatographic logP [6]: 2.25
CC(=NOCCCCc1ccccc1)c1csc(C2CCN(C(=O)Cn3nc(C(F)(F)F)cc3C)CC2)n1 [I-22]	4.97		
Cc1cc(C(F)(F)F)nn1CC(=O)N1CCC(c2nc(C=NN(c3ccccc3)c3ccccc3)cs2)CC1 [I-13]	4.77		

Structure (SMILES)	logP [1]	logP [2]	also measured
CC(=NOC(C)c1ccccc1)c1csc(C2CCN(C(=O)Cn3nc(C(F)(F)F)cc3C)CC2)n1 (centres unmarked) [I-5, 2-[5-Methyl-3-(trifluoromethyl)-1H-pyrazol-1-yl]-1-(4-{4-[N-(1-phenylethoxy)ethanimidoyl]-1,3-thiazol-2-yl}piperidin-1-yl)ethanone]			chromatographic logP [3]: 4.38; chromatographic logP [4]: 4.54; chromatographic logP [5]: 4.54; chromatographic logP [6]: 4.38
O=C(Cn1nc(C(F)F)cc1C(F)F)N1CCC(c2nc(C=NOC3CCCCC3)cs2)CC1 (mixture of isomers) [I-34]	4.12	4.33	
Cc1cc(C(F)(F)F)nn1CC(=O)N1CCC(c2nc(C=NOCc3c(F)cccc3F)cs2)CC1 (mixture of isomers) [I-36]	3.70	3.86	
Cc1cc(C(F)(F)F)nn1CC(=O)N1CCC(c2nc(C=NOCc3ccccc3Cl)cs2)CC1 [I-18]	4.04		
CC(=NOCc1ccccc1)c1csc(C2CCN(C(=O)Cn3nc(C(F)(F)F)cc3C)CC2)n1 (mixture of isomers) [I-10]	4.07	4.28	
O=C(Cc1cc(Cl)ccc1Cl)N1CCC(c2nc(C=NOCc3c(F)cccc3F)cs2)CC1 (mixture of isomers) [I-38]	4.36	4.60	
O=C(Cn1nc(C(F)(F)F)cc1C(F)(F)F)N1CCC(c2nc(C=NOCc3ccc(Cl)cc3)cs2)CC1 [I-24]	4.56		
CC(=NOCCCc1ccccc1)c1csc(C2CCN(C(=O)Cn3nc(C(F)(F)F)cc3C)CC2)n1 [I-21]	4.66		
Cc1cc(C(F)(F)F)nn1CC(=O)N1CCC(c2nc(C=NOC(C)c3ccc(Cl)cc3)cs2)CC1 (mixture of isomers) [I-8]	4.34	4.50	
Cc1cc(C(F)(F)F)nn1CC(=O)N1CCC(c2nc(C=NN(C)c3ccc(C(F)(F)F)cn3)cs2)CC1 [I-14, 2-(1-{[5-Methyl-3-(trifluoromethyl)-1H-pyrazol-1-yl]acetyl}piperidin-4-yl)-1,3-thiazole-4-carbaldehyde methyl[5-(trifluoromethyl)pyridin-2-yl]hydrazone]			chromatographic logP [3]: 4.23; chromatographic logP [6]: 4.23
CC(C)c1cc(C(F)(F)F)n(CC(=O)N2CCC(c3nc(C=NOCc4ccc(Cl)cc4)cs3)CC2)n1 [I-32]	4.56		
CC(=NOCc1c(F)cccc1F)c1csc(C2CCN(C(=O)Cn3nc(C(F)F)cc3C(F)F)CC2)n1 (mixture of isomers) [I-42]	4.00	4.19	
Cc1cc(C(F)(F)F)nn1CC(=O)N1CCC(c2nc(C=NOC3CCCCC3)cs2)CC1 (mixture of isomers) [I-33]	4.26	4.48	
CC(=NOc1ccccc1)c1csc(C2CCN(C(=O)Cn3nc(C(F)(F)F)cc3C)CC2)n1 (mixture of isomers) [I-4]	4.23	4.46	
CCCCCCON=C(C)c1csc(C2CCN(C(=O)Cn3nc(C(F)(F)F)cc3C)CC2)n1 [I-19]	5.13		
Cc1cc(C(F)(F)F)nn1CC(=O)N1CCC(c2nc(C=NN(Cc3ccccc3)c3ccccc3)cs2)CC1 [I-12]	4.70		
Cc1cc(C(F)(F)F)nn1CC(=O)N1CCC(c2nc(C=NOC(C)c3ccccc3)cs2)CC1 (mixture of isomers) [I-3]	3.92	4.07	
Cc1cc(C(F)(F)F)nn1CC(=O)N1CCC(c2nc(C=NN(C)Cc3ccccn3)cs2)CC1 [I-11]	1.82		
Cc1ccccc1CON=Cc1csc(C2CCN(C(=O)Cn3nc(C(F)(F)F)cc3C)CC2)n1 (mixture of isomers) [I-6]	3.96	4.12	
Cc1cc(C(F)(F)F)nn1CC(=O)N1CCC(c2nc(C=NOc3ccccc3Br)cs2)CC1 [I-39]	4.14		
CC(=NN1CCCCC1)c1csc(C2CCN(C(=O)Cn3nc(C(F)(F)F)cc3C)CC2)n1 [I-17, 2-[5-Methyl-3-(trifluoromethyl)-1H-pyrazol-1-yl]-1-(4-{4-[N-(piperidin-1-yl)ethanimidoyl]-1,3-thiazol-2-yl}piperidin-1-yl)ethanone]			chromatographic logP [3]: 3.69; chromatographic logP [6]: 3.69
CCc1cc(CC)n(CC(=O)N2CCC(c3nc(C=NOCc4ccc(Cl)cc4)cs3)CC2)n1 [I-25]	3.70		
CCc1cc(C(F)(F)F)nn1CC(=O)N1CCC(c2nc(C=NOCc3ccc(Cl)cc3)cs2)CC1 [I-26]	4.30		
